# Results: patent publication US20140213558A1, “TREATMENT OF INFLAMMATORY DISEASE OR DISORDER AND COMPOSITIONS THEREFOR” (CREDE OILS (PTY) LTD, priority 2011, published 2014)
# Assay: Comparison of pure TQ with Nigella sativa oil
# Details: administration of pure TQ
# Procedure: Nevertheless, some embodiments of the invention may include N. sativa oil and/or its essential oil, either as the sole or primary active or in combination with EPA and/or GLA. […] Thus, N. sativa essential oil may provide a therapeutic or prophylactic effect in some embodiments of the invention, particularly in those embodiments in which one or more other actives (e.g., EPA, GLA, etc.) are also administered. Similarly, embodiments of the invention may include derivatives and/or precursors of TQ, including polymers of TQ.
smiles,measurement,value
"CC1=CC(=O)C(C(C)C)=CC1=O [TQ, 2-isopropyl-5-methylbenzo-1,4-quinone]",effectiveness relative to Nigella sativa oil,more effective than the administration of Nigella sativa oil
